According to article PMC5995653 (Journal of pharmacological and toxicological methods, 2018):
Read-outs that look alike come from different tables or passages of the source.

Tests used:
hSERT [1] = molecular target: T1, hSERT (Homo sapiens, UniProt P31645); conditions: read-out: Reuptake inhibition activity IC50, hSERT, JAR cells
rSERT = rSERT (Rattus norvegicus, UniProt P31652); conditions: read-out: Ki, rSERT, synaptosomes; cited from earlier work
hSERT [2] = molecular target: T1, hSERT; conditions: read-out: Reuptake inhibition activity IC50, hSERT-HEK293 cells; cited from earlier work
hSERT [3] = molecular target: T1, hSERT; assay: SERT reuptake inhibition in transfected hSERT-HEK293 cells; format: cell-based; conditions: unpublished results of the authors' group

T1 sequence (P31645 whole entry): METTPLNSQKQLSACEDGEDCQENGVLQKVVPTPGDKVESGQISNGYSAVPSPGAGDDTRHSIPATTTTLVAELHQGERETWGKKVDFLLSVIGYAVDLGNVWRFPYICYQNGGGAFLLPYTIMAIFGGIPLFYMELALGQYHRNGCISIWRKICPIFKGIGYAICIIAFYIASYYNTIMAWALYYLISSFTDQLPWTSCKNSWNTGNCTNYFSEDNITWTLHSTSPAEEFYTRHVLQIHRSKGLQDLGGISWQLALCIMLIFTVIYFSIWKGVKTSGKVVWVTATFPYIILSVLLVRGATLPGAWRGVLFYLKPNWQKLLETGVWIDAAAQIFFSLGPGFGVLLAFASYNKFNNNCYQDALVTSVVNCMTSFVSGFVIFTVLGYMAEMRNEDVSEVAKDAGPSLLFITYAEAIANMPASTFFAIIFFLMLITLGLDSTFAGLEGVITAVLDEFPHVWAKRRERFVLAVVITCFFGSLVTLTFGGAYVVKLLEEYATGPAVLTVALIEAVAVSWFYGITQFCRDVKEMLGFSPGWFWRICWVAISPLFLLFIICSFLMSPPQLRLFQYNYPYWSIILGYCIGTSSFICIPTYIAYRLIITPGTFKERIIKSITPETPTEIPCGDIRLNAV
Chain of rSERT (P31652 whole entry): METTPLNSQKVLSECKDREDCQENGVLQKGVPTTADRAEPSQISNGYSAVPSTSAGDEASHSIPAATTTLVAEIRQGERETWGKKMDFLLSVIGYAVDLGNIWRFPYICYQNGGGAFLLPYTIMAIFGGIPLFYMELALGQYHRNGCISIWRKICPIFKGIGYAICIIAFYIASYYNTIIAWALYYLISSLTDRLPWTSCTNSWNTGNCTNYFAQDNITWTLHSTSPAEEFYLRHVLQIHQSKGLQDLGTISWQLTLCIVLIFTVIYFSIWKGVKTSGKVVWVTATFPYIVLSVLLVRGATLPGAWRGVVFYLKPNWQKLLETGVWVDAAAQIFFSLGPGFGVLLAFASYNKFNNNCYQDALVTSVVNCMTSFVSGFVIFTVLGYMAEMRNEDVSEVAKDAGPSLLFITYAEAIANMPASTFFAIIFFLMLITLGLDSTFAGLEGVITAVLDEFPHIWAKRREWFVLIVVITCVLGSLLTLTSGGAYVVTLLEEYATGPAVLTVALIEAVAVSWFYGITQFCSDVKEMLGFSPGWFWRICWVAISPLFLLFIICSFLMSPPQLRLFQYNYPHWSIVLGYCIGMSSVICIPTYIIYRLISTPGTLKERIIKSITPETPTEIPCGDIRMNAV

Row | Compound | IC50 (hSERT [1]) [nM] | Ki (rSERT) [nM] | IC50 (hSERT [2]) [nM] | Activity in hSERT-HEK293 cells (in words) (hSERT [3])
1 | CN1[C@H]2CC[C@@H]1[C@@H](C(=O)N1CCCC1)[C@@H](c1ccc(I)cc1)C2 [RTI-229] | 589 ± 42 | 362 |  | 
2 | COC(=O)[C@H]1C(c2ccc(I)cc2)C[C@@H]2CC[C@H]1N2C (stereo partly drawn) [RTI-55] | 1.31 ± 0.1 | 1 | 0.51 ± 0.14 | 
3 | Fc1ccc(C(OCCN2CCN(CCCc3ccccc3)CC2)c2ccc(F)cc2)cc1 [GBR12909] |  |  |  | inactive
